These results are taken from PubChem BioAssay AID1194 (EPA DSSTox, 2008).

The source made the active and inactive calls.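 How the source made its calls: active means chemicals rated mutagenic or weakly mutagenic in the Salmonella bacterial test by one literature review, or positive overall by another; inconclusive means no clear call, values can overlap the other calls; inactive means the rest.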

The series concerns Salmonella typhimurium Ames mutagenicity, literature compiled. The series is described as follows: DSSTox (CPDBAS) Carcinogenic Potency Database Salmonella Mutagenicity. The essentials:
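Calls derive from published evaluations rather than new testing; overall "positive" in EPA Gene-Tox, or "mutagenic"/"weakly mutagenic" per Zeiger, counts as active.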

`ClC1(Cl)C2(Cl)C3(Cl)C4(Cl)C(Cl)(Cl)C5(Cl)C3(Cl)C1(Cl)C5(Cl)C24Cl` (centres undefined): the result was inactive.
Then `C=CC(=O)c1ccc2c(c1)OCO2`, with “inactive; active”.
Next, `ClC(Cl)C(Cl)Cl`: “inactive; active”.
Next, `OCCO`: “inactive”.
Consider `O=S(=O)(O)c1ccc(N=Nc2c(O)ccc3cc(S(=O)(=O)O)ccc23)cc1`, for which the outcome was “inactive; active”.
Next, `O=[N+]([O-])c1cc([As](=O)(O)O)ccc1O`: “inactive”.
Then `Oc1ccc(Cl)cc1Cl`, with “inactive; active”.
Then `CN(C)C(=O)Nc1cccc(C(F)(F)F)c1`, with “inactive”.
Regarding `ClC1=C(Cl)[C@]2(Cl)[C@@H]3[C@@H]4C[C@@H]([C@H]5O[C@@H]45)[C@@H]3[C@@]1(Cl)C2(Cl)Cl`, the outcome was “inactive; active”.
Then `c1ccoc1`, with “inactive”; and `O=[N+]([O-])c1ccc(-c2cscn2)o1`, with “active; inactive”.
Next, `CCOC(=O)CC(SP(=S)(OC)OC)C(=O)OCC` (centres undefined): “inactive”; `O=[N+]([O-])c1cccc2ccccc12`: “active”; `Cc1cc(O)c(C(C)(C)C)cc1Sc1cc(C(C)(C)C)c(O)cc1C`: “inactive; active”.
As for `NC(=O)CCCCC(N)=O`, the result was inactive.
Then `Clc1nc(Cl)nc(Nc2ccccc2Cl)n1`, with “inactive”.
Then `S=[Se]`, with “active”; and `COc1ccc(N)c(OC)c1`, with “active; inactive”; and `Nc1ccc([N+](=O)[O-])cc1N`, with “active”.
Then `C=CC(=O)O`, with “inactive”.
Regarding `Cc1c(N)cccc1N`, the outcome was “active; inactive”.
Next, `COc1ccc([N+](=O)[O-])cc1N=Nc1c(O)c(C(=O)Nc2cccc([N+](=O)[O-])c2)cc2ccccc12`: “active; inactive”; `O=[O+][O-]`: “active; inactive”.
For `O=C(c1ccccc1)C(O)c1ccccc1` (centres undefined), the result was inactive.
Then `C=CCc1ccc(OC)cc1`, with “inactive; active”; and `c1ccc2c(c1)ccc1cc3c(ccc4ccccc43)cc12`, with “active”; and `CC(Cl)(Cl)Cl`, with “active”.
Then `C/C=C/C=C/C=O`, with “active”; and `O=S1OCC2C(CO1)C1(Cl)C(Cl)=C(Cl)C2(Cl)C1(Cl)Cl` (centres undefined), with “inactive; active”.
Next, `O=c1cc(CO)occ1O`: “active; inactive”.
As for `Cn1cnc([N+](=O)[O-])c1Sc1ncnc2nc[nH]c12`, the outcome was active.
Then `C=O`, with “active; inactive”; and `Nc1ccc2nc3ccccn3c2n1`, with “active”; and `CC(O)CCl` (centres undefined), with “active”.
Next, `CC(=O)OCc1ccccc1`: “inactive; active”; `CCOP(=S)(OCC)SC1OCCOC1SP(=S)(OCC)OCC` (centres undefined): “active; inactive”.
Then `Cc1cc(O)c(C)c2c1OC(C)(CCCC(C)CCCC(C)CCCC(C)C)CC2` (centres undefined), with “inactive; active”; and `C#C[C@]1(O)CC[C@H]2[C@@H]3CCc4cc(O)ccc4[C@H]3CC[C@@]21C`, with “inactive”.
Turning to `O=C(O)c1ccc([N+](=O)[O-])cc1`, the outcome was active.
Next, `CC(C)N(C(=O)SC/C(Cl)=C/Cl)C(C)C`: “active”; `CC=O`: “inactive; active”; `COc1cc(-c2ccc(N=Nc3c(S(=O)(=O)O)cc4cc(S(=O)(=O)O)cc(N)c4c3O)c(OC)c2)ccc1N=Nc1c(S(=O)(=O)O)cc2cc(S(=O)(=O)O)cc(N)c2c1O`: “active”.
Next, `NC(=O)N/N=C/c1ccc([N+](=O)[O-])o1`: “active”; `C/C=N/O`: “inactive”; `Cc1ccc(C)c(N)c1`: “active; inactive”.
Next, `N/C(=N\O)c1ccc([N+](=O)[O-])o1`: “active”.
For the molecule `O=C1N(CCO)CCN1/N=C/c1ccc([N+](=O)[O-])o1`, the result was active.
Turning to `ClC1C2(Cl)C3C4C5OC5C5C4C1(Cl)C(Cl)(C53)C2(Cl)Cl` (centres undefined), the outcome was active.
Next, `N=C1C=CC(=C(c2ccc(N)cc2)c2ccc(N)cc2)C=C1`: “active”; `CCCCOC(=O)c1ccc(O)cc1`: “inactive; active”; `c1ccc(NNc2ccccc2)cc1`: “active”.
On to `Nc1cccc2c(N)cccc12`, for which the outcome was active.
On to `COc1ccc(C(c2ccc(OC)cc2)C(Cl)(Cl)Cl)cc1`, for which the outcome is “inactive; active”.
Next, `NCCNc1cccc2ccccc12`: “active”.
`Nc1ccc(N)c2c1C(=O)c1c(N)ccc(N)c1C2=O`: the result was active.
Next, `CC(=O)NCc1nc(-c2ccc([N+](=O)[O-])o2)no1`: “active”; `Clc1cccc(-c2ccc(Cl)c(Cl)c2Cl)c1Cl`: “inactive; active”; `COc1cc(N=Nc2ccccc2)ccc1N`: “active”.
Next, `CNN`: “active; inactive”.
With `ClC(Cl)=C(c1ccc(Cl)cc1)c1ccc(Cl)cc1`, the outcome was “inactive; active”.
Take `O.O=S(=O)([O-])[O-].[Mn+2]`: the outcome was “inactive; active”.
Then `CC(=O)Nc1cccc2c1-c1ccccc1C2`, with “active; inactive”; and `CCCCCC(N)=O`, with “inactive; active”; and `Nc1ccc(Nc2ccccc2)cc1`, with “inactive; active”.
Then `C=CBr`, with “active; inactive”.
`[O]=[Cr](=[O])([OH])[O][Cr](=[O])(=[O])[OH]`: the result was active.
Next, `COC(=O)[C@H]1[C@H]2C[C@@H]3c4[nH]c5cc(OC)ccc5c4CCN3C[C@H]2C[C@@H](OC(=O)c2cc(OC)c(OC)c(OC)c2)[C@@H]1OC`: “inactive”; `CC(=O)O[C@@H]1[C@@H](O)C2OC3C=C(C)C(=O)C(O)[C@@]3(CO)[C@]1(C)[C@]21CO1` (some centres undefined): “inactive; active”; `Cc1cc(C)c(S(=O)(=O)O)cc1N=Nc1cc(S(=O)(=O)O)c2ccccc2c1O`: “inactive; active”.
Then `CCCCC(CC)COP(=O)(OCC(CC)CCCC)OCC(CC)CCCC` (centres undefined), with “inactive; active”.
Then `ClC(Br)Br`, with “inactive”; and `CCSCCC(N)C(=O)O` (centres undefined), with “inactive”.
For the molecule `CN(C)P(=O)(N(C)C)N(C)C`, the result was inactive.
On to `CN(N=O)C(=O)N[C@@H]1[C@@H](O)[C@H](O)[C@@H](CO)O[C@@H]1O`, for which the outcome was active.
Consider `COc1cc(-c2ccc(N=C=O)c(OC)c2)ccc1N=C=O`, for which the result was active.
Next, `O=C1c2ccccc2-c2ccc3c4c(ccc1c24)-c1ccccc1C3=O`: “inactive; active”.
Next, `c1ccncc1`: “inactive”; `Nc1ncn[nH]1`: “inactive; active”; `Cc1ccc(N)cc1Cl`: “inactive; active”.
